The values below come from USRE45907E1, “Functionalized stilbene derivatives as improved vascular targeting agents” (OXiGENE, Inc., priority 2001, dated 2016).

In assay [1] the test system is MHEC-5T hemangioendothelioma tumor. In kind it is in vivo. The following applies: 100 mg/kg single i.p. dose, 24 hours post-treatment, SCID mice with MHEC5-T tumor. On the procedure:
The vascular effects of the following compounds were assessed in tumor-bearing mice using a fluorescent-bead assay. A MHEC-5T hemangioendothelioma tumor model was established by subcutaneous injection of 0.5×10^6 cultured MHEC5-T cells into the right flank of Fox Chase CB-17 SCID mice and allowed to grow to a size of 300 mm^3 before i.p. injection with a single dose of saline control or compound. At 24 hours post-treatment, mice were i.v. injected with 0.25 ml of diluted FluoSphere beads (1:6 in physiological saline) in the tail vein, and sacrificed after 3 minutes. Tumor cryosections at a thickness of 8 um were directly examined using quantitative fluorescent microscopy. For quantification, image analysis of 3 sections from three tumor treated in each group were examined and vascular shutdown was expressed a vessel area per tissue area (mm^2) in percentage of the control.

Assay [2] is classed as cell-based. On the procedure: Exponentially growing were treated with the following compounds for 1 hour and 5 days. Insoluble compounds were formulated in a small amount (0.3%) of DMSO for biological evaluation. Cell viability was determined by the calorimetric MTT assay using 3(4,5-dimethylthiazol-2-yl)-2,5-diphenyl-2H-tetrazolium bromide according to well-established procedures (see Berridge, et al. (1996) for a general protocol of this type of assay).

The subject of assay [3] is tubulin. Description: Inhibition of tubulin polymerization. In kind it is biochemical.
Assay [4] has as its system human cancer cell lines. Description: MTT cytotoxicity of combretastatins and prodrugs (Table 1). The format is cell-based.
[5] abbreviates: treated for 1 hour, read-out: IC50 @ 1 h.
Setting [6] is: treated for 5 days, read-out: IC50 @ 5 days.
Setting [7] is: 1 h, read-out: MTT Cytotoxicity (IC50) at 1 hour.
The mark [8] stands for this setting: 5 h, read-out: MTT Cytotoxicity (IC50) at 5 hours.

Where a name gives a salt, the structure may show the parent alone. Read-outs that look alike come from different tables or passages of the source.

One may read the IC50 as the concentration that gives 50% inhibition. As for “3′,5′-Tetrasodium Phosphate-3,4,4′,5-tetramethoxy-(Z)-stilbene [ZSB-2B]”, in assay [1], the “% Blood Flow Shutdown (100 mg/kg)” value amounted to 65%. Further, the IC50 in assay [2] (setting [5]) is 25000 nM; in assay [2] (setting [6]), 1000 nM.

For the molecule `COc1ccc(/C=C\c2cc(OC)c(OC)c(OC)c2)c(O)c1O` [CA-1, combretastatin A-1], the values for the IC50 in assay [3], in assay [4] (setting [7]) and in assay [4] (setting [8]) were 2 to 4 µM, 10000 nM and 50 nM, respectively. For the same molecule, the activity with tubulin result in assay [3] is on record as “active with tubulin”.

For the molecule `COc1cc(/C=C\c2ccc(OC)c(OP(=O)(O)O)c2OP(=O)(O)O)cc(OC)c1OC` [CA-1P], the half-inhibitory concentration (IC50) in assay [3] is more than 40 µM; in assay [4] (setting [7]), 3200 nM; in assay [4] (setting [8]), 4.6 nM. The activity with tubulin entry in assay [3] is “not active with tubulin”.

On to `COc1ccc(/C=C\c2cc(OC)c(OC)c(OC)c2)cc1O` [CA-4, Combretastatin A-4], for which the values for the half-inhibitory concentration (IC50) in assay [3], in assay [4] (setting [7]) and in assay [4] (setting [8]) were […], 100 nM and 50 nM, respectively.

Regarding `COc1ccc(/C=C\c2cc(OC)c(OC)c(OC)c2)cc1OP(=O)(O)O` [CA-4P], the figures for the IC50 in assay [3], in assay [4] (setting [7]) and in assay [4] (setting [8]) were more than 40 µM, 800 nM and 2 nM, respectively.

On to `COc1ccc(/C=C\c2cc(OC)c(OC)c(OC)c2)cc1OP(=O)(O)OC1CCCCC1` [Oxi-com191, CA4P Cyclohexane Ester, Ammonium Salt], for which the IC50 in assay [2] (setting [5]) was 35000 nM; in assay [2] (setting [6]), 130 nM.

For `COc1ccc(/C=C\c2cc(OC)c(OC)c(OC)c2)cc1OP(=O)(O)OC` [Oxi-com209, CA-4P Methyl Ester, Ammonium Salt], the results for the half-maximal inhibitory concentration (IC50) in assay [2] (setting [5]) and in assay [2] (setting [6]) were 38000 nM and 70 nM, respectively.

As to `COc1ccc(/C=C\c2cc(OC)c(OC)c(OC)c2)c(N)c1N` [ZSB-3B, 2′,3′-Damino-3,4,4′,5-tetramethoxy-(Z)-stilbene], the IC50 stood at 2400 nM in assay [2] (setting [5]) and 4.3 nM in assay [2] (setting [6]).

As to `COc1ccc(/C=C\c2cc(OC)c(OC)c(OC)c2)c(Br)c1O` [ZSB-16, 2′-Bromo-3′-Hydroxy-3,4,4′,5-tetramethoxy-(Z)-stilbene], the IC50 in assay [2] (setting [5]) worked out at 2000 nM; in assay [2] (setting [6]), 6.7 nM.

Turning to `COc1ccc(/C=C\c2cc(OC)c(OC)c(OC)c2)c(O)c1Br` [ZSB-26A, 2′ Hydroxy-3′-bromo-3,4,4′,5-tetramethoxy-(Z)-stilbene], the half-inhibitory concentration (IC50) came out at 3070 nM in assay [2] (setting [5]) and 16 nM in assay [2] (setting [6]).

Regarding `COc1cc(/C=C\c2ccc(OC)c(OP(=O)([O-])[O-])c2OC)cc(OC)c1OC.[Na+].[Na+]` [ZSB-27B, 3′-Disodium Phosphate-3,3′,4,4′,5-pentamethoxy-(Z)-stilbene], the “% Blood Flow Shutdown (100 mg/kg)” value in assay [1] is given as 41%.

For the molecule `COc1cc(/C=C\c2cc(OC)c(OC)c(OC)c2)c(I)cc1OP(=O)([O-])[O-].[Na+].[Na+]` [ZSB-29B, 4′-Disodium Phosphate-2′-Iodo-3,4,5,5′-tetramethoxy-(Z)-stilbene], the “% Blood Flow Shutdown (100 mg/kg)” value in assay [1] is recorded as 43%.

Take `COc1cc(OP(=O)([O-])[O-])c(/C=C\c2cc(OC)c(OC)c(OC)c2)cc1OP(=O)([O-])[O-].[Na+].[Na+].[Na+].[Na+]` [ZSB-33B, 2′,5′-Tetrasodium Diphosphate-3,4,4′,5-tetramethoxy-(Z)-stilbene]: in assay [1], the “% Blood Flow Shutdown (100 mg/kg)” value is recorded as 51%.

As to `COc1ccc(/C=C\c2cc(OC)c(OC)c(OC)c2)c(N)c1` [ZSB-39B, 2′-Amino-3,4,4′,5-tetramethoxy-(Z)-stilbene], in assay [1], the “% Blood Flow Shutdown (100 mg/kg)” value turned out to be 50%.

As for `COc1ccc(/C=C\c2cc(OC)c(OC)c(OC)c2)c(F)c1O` [ZSB-41A, 2′-Fluoro-3′-Hydroxy-3,4,4′,5-tetramethoxy-(Z)-stilbene], the 50% inhibitory concentration (IC50) came out at 8000 nM in assay [2] (setting [5]) and 15 nM in assay [2] (setting [6]).

As for `COc1cc(/C=C\c2cc(O)c(OC)c([N+](=O)[O-])c2)cc(OC)c1OC` [ZSB-43, 3′-Hydroxy, 5′-Nitro-3,4,4′,5-tetramethoxy-(Z)-stilbene], the IC50 was 8000 nM in assay [2] (setting [5]) and 1300 nM in assay [2] (setting [6]).

Regarding `COc1ccc(/C=C\c2cc(OC)c(OC)c(OC)c2)c(NC(=O)C(N)CO)c1` (centres unmarked) [ZSB-45, 2′serinamide-3,4,4′,5-tetramethoxy-(Z)-stilbene], the “% Blood Flow Shutdown (100 mg/kg)” value in assay [1] was 43%. The IC50 in assay [2] (setting [5]) is 10000 nM; in assay [2] (setting [6]) it was 50 nM.

On to `COc1ccc(/C=C\c2cc(OC)c(OC)c(OC)c2)c(O)c1` [ZSB-46A, 2′-Hydroxy-3,4,4′,5-tetramethoxy-(Z)-stilbene], for which the IC50 in assay [2] (setting [5]) was determined as 43000 nM; in assay [2] (setting [6]), 68 nM.

For “CA4P n-Octyl Ester, Ammonium Salt [Oxi-com210]”, in assay [1], the “% Blood Flow Shutdown (100 mg/kg)” value is recorded as 89%.
